Experimental data: US10239883B2, “4-imidazopyridazin-1-yl-benzamides as BTK inhibitors” (Merck Sharp & Dohme B.V., priority 2011, dated 2019)

Target: Btk enzyme (His-Btk) (Homo sapiens (Human), UniProt Q06187)
Test: Btk enzyme activity, IMAP fluorescence polarization assay
Settings: 60 min pre-incubation, 5 μM ATP, bin bound in nM

Chain of Btk enzyme (His-Btk) (Q06187 whole entry): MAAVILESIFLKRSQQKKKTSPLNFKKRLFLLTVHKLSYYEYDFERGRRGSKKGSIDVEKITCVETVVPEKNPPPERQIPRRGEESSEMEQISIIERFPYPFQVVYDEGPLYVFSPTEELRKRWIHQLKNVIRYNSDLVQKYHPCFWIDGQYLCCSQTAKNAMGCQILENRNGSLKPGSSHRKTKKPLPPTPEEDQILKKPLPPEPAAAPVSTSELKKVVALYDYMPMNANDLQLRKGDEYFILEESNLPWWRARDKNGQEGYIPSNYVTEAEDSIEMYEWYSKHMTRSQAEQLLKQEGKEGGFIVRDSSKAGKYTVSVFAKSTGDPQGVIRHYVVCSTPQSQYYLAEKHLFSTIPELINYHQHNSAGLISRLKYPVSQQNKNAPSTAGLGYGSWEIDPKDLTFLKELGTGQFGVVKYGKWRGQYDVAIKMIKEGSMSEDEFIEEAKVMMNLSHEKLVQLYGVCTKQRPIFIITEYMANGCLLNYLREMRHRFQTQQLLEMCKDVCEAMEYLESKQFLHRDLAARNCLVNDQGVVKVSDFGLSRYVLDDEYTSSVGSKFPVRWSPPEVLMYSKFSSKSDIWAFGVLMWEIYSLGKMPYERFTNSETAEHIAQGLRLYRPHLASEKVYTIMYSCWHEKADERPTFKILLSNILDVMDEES

EC50 Btk activity values, <100 nM:
Nc1nccn2c([C@@H]3CCCN3C(=O)/C=C/CN3CCCC3)nc(-c3ccc(C(=O)Nc4ccccn4)cc3)c12 [Example 2, (S,E)-4-(8-amino-3-(1-(4-(pyrrolidin-1-yl)but-2-enoyl)pyrrolidin-2-yl)imidazo[1,5-a]pyrazin-1-yl)-N-(pyridin-2-yl)benzamide]
COC/C=C/C(=O)N1CCC[C@H]1c1nc(-c2ccc(C(=O)Nc3ccccn3)cc2)c2c(N)nccn12 [Example 4, (S,E)-4-(8-amino-3-(1-(4-methoxybut-2-enoyl)pyrrolidin-2-yl)imidazo[1,5-a]pyrazin-1-yl)-N-(pyridin-2-yl)benzamide]
Nc1nccn2c([C@@H]3CCCN3C(=O)c3ccnc(Cl)n3)nc(-c3ccc(C(=O)Nc4ccccn4)cc3)c12 [Example 5, (S)-4-(8-amino-3-(1-(2-chloropyrimidine-4-carbonyl)pyrrolidin-2-yl)imidazo[1,5-a]pyrazin-1-yl)-N-(pyridin-2-yl)benzamide]
CN(C)C/C=C/C(=O)N1CCC[C@H]1c1nc(-c2ccc(C(=O)Nc3cc(F)ccn3)cc2)c2c(N)nccn12 [Example 7, (S,E)-4-(8-Amino-3-(1-(4-(dimethylamino)but-2-enoyl)pyrrolidin-2-yl)imidazo[1,5-a]pyrazin-1-yl)-N-(4-fluoropyridin-2-yl)benzamide]
CCc1ccnc(NC(=O)c2ccc(-c3nc([C@@H]4CCCN4C(=O)/C=C/COC)n4ccnc(N)c34)cc2)c1 [Example 11, (S,E)-4-(8-Amino-3-(1-(4-methoxybut-2-enoyl)pyrrolidin-2-yl)imidazo[1,5-a]pyrazin-1-yl)-N-(4-ethylpyridin-2-yl)benzamide]
CC#CC(=O)N1CCCC[C@H]1c1nc(-c2ccc(C(=O)Nc3ccon3)cc2)c2c(N)nccn12 [Example 24, (S)-4-(8-Amino-3-(1-but-2-ynoylpiperidin-2-yl)imidazo[1,5-a]pyrazin-1-yl)-N-(isoxazol-3-yl)benzamide]
CN(C)CC#CC(=O)N1CCC[C@H]1c1nc(-c2ccc(C(=O)Nc3ccccn3)cc2)c2c(N)nccn12 [Example 40, (S)-4-(8-Amino-3-(1-(4-(dimethylamino)but-2-ynoyl)pyrrolidin-2-yl)imidazo[1,5-a]pyrazin-1-yl)-N-(pyridin-2-yl)benzamide]
COCC#CC(=O)N1CCC[C@H]1c1nc(-c2ccc(C(=O)Nc3ccccn3)cc2)c2c(N)nccn12 [Example 41, (S)-4-(8-Amino-3-(1-(4-methoxybut-2-ynoyl)pyrrolidin-2-yl)imidazo[1,5-a]pyrazin-1-yl)-N-(pyridin-2-yl)benzamide]
CC#CC(=O)N1CCC[C@H]1c1nc(-c2ccc(C(=O)Nc3ccccn3)c(F)c2)c2c(N)nccn12 [Example 50, (S)-4-(8-amino-3-(1-but-2-ynoylpyrrolidin-2-yl)imidazo[1,5-a]pyrazin-1-yl)-2-fluoro-N-(pyridin-2-yl)benzamide]
COC/C=C/C(=O)N1CCC[C@H]1c1nc(-c2ccc(C(=O)Nc3cc(OC)ccn3)cc2)c2c(N)nccn12 [Example 51, (S,E)-4-(8-amino-3-(1-(4-methoxybut-2-enoyl)pyrrolidin-2-yl)imidazo[1,5-a]pyrazin-1-yl)-N-(4-methoxypyridin-2-yl)benzamide]
Cc1cc(C(=O)Nc2ccccn2)ccc1-c1nc([C@@H]2CCCCN2C(=O)c2ccnc(Cl)n2)n2ccnc(N)c12 [Example 56, 4-(8-amino-3-((S)-1-(2-chloropyrimidine-4-carbonyl)piperidin-2-yl)imidazo[1,5-a]pyrazin-1-yl)-3-methyl-N-(pyridin-2-yl)benzamide]
COC/C=C/C(=O)N1CCC[C@H]1c1nc(-c2ccc(C(=O)Nc3cc(C)ccn3)cc2)c2c(N)nccn12 [Example 57, (S,E)-4-(8-amino-3-(1-(4-methoxybut-2-enoyl)pyrrolidin-2-yl)imidazo[1,5-a]pyrazin-1-yl)-N-(4-methylpyridin-2-yl)benzamide]
COC/C=C/C(=O)N1CCC[C@H]1c1nc(-c2ccc(C(=O)Nc3cc(C(C)C)ccn3)cc2)c2c(N)nccn12 [Example 58, (S,E)-4-(8-amino-3-(1-(4-methoxybut-2-enoyl)pyrrolidin-2-yl)imidazo[1,5-a]pyrazin-1-yl)-N-(4-isopropylpyridin-2-yl)benzamide]
Cc1ccnc(NC(=O)c2ccc(-c3nc([C@@H]4CCCN4C(=O)/C=C/CN(C)C)n4ccnc(N)c34)cc2)c1 [Example 59, (S,E)-4-(8-amino-3-(1-(4-(dimethylamino)but-2-enoyl)pyrrolidin-2-yl)imidazo[1,5-a]pyrazin-1-yl)-N-(4-methylpyridin-2-yl)benzamide]
CN(C)C/C=C/C(=O)NCc1nc(-c2ccc(C(=O)Nc3ccccn3)cc2)c2c(N)nccn12 [Example 69, (E)-4-(8-amino-3-((4-(dimethylamino)but-2-enamido)methyl)imidazo[1,5-a]pyrazin-1-yl)-N-(pyridin-2-yl)benzamide]
CC(C)c1ccnc(NC(=O)c2ccc(-c3nc([C@@H]4CCCN4C(=O)c4ccnc(Cl)n4)n4ccnc(N)c34)cc2)c1 [Example 70, (S)-4-(8-amino-3-(1-(2-chloropyrimidine-4-carbonyl)pyrrolidin-2-yl)imidazo[1,5-a]pyrazin-1-yl)-N-(4-isopropylpyridin-2-yl)benzamide]
Nc1nccn2c([C@@H]3CCCN3C(=O)c3ccnc(Cl)n3)nc(-c3ccc(C(=O)Nc4nc5c(s4)CCCC5)cc3)c12 [Example 71, (S)-4-(8-amino-3-(1-(2-chloropyrimidine-4-carbonyl)pyrrolidin-2-yl)imidazo[1,5-a]pyrazin-1-yl)-N-(4,5,6,7-tetrahydrobenzo[d]thiazol-2-yl)benzamide]
CN(C)C/C=C/C(=O)N1CCCC[C@H]1c1nc(-c2ccc(C(=O)Nc3cccnn3)cc2)c2c(N)nccn12 [Example 73, (S,E)-4-(8-amino-3-(1-(4-(dimethylamino)but-2-enoyl)piperidin-2-yl)imidazo[1,5-a]pyrazin-1-yl)-N-(pyridazin-3-yl)benzamide]
Nc1nccn2c([C@@H]3CCCCN3C(=O)c3ccnc(Cl)n3)nc(-c3ccc(C(=O)Nc4cc(F)ccn4)cc3)c12 [Example 80, (S)-4-(8-amino-3-(1-(2-chloropyrimidine-4-carbonyl)piperidin-2-yl)imidazo[1,5-a]pyrazin-1-yl)-N-(4-fluoropyridin-2-yl)benzamide]
COC/C=C/C(=O)N1CCCC[C@H]1c1nc(-c2ccc(C(=O)Nc3cc(F)ccn3)cc2)c2c(N)nccn12 [Example 81, (S,E)-4-(8-amino-3-(1-(4-methoxybut-2-enoyl)piperidin-2-yl)imidazo[1,5-a]pyrazin-1-yl)-N-(4-fluoropyridin-2-yl)benzamide]
COC/C=C/C(=O)N1CCC[C@H]1c1nc(-c2ccc(C(=O)Nc3nc4c(s3)CCCC4)cc2)c2c(N)nccn12 [Example 82, (S,E)-4-(8-amino-3-(1-(4-methoxybut-2-enoyl)pyrrolidin-2-yl)imidazo[1,5-a]pyrazin-1-yl)-N-(4,5,6,7-tetrahydrobenzo[d]thiazol-2-yl)benzamide]
COc1cc(-c2nc([C@@H]3CCCN3C(=O)c3ccnc(Cl)n3)n3ccnc(N)c23)ccc1C(=O)Nc1ccccn1 [Example 83, (S)-4-(8-amino-3-(1-(2-chloropyrimidine-4-carbonyl)pyrrolidin-2-yl)imidazo[1,5-a]pyrazin-1-yl)-2-methoxy-N-(pyridin-2-yl)benzamide]

Same assay, conditions: 60 min pre-incubation, 5 μM ATP, bin bound in μM

EC50 Btk activity values, <1000 nM:
COC/C=C/C(=O)N1CCC[C@H]1c1nc(-c2ccc(C(=O)Nc3ccccn3)c(F)c2)c2c(N)nccn12 [Example 52]
COC/C=C/C(=O)N1CCC[C@H]1c1nc(-c2ccc(C(=O)Nc3cc(F)ccn3)cc2)c2c(N)nccn12 [Example 53, (S,E)-4-(8-amino-3-(1-(4-methoxybut-2-enoyl)pyrrolidin-2-yl)imidazo[1,5-a]pyrazin-1-yl)-N-(4-fluoropyridin-2-yl)benzamide]
COC/C=C/C(=O)N1CCCC[C@H]1c1nc(-c2ccc(C(=O)Nc3ccon3)cc2)c2c(N)nccn12 [Example 54, (S,E)-4-(8-amino-3-(1-(4-methoxybut-2-enoyl)piperidin-2-yl)imidazo[1,5-a]pyrazin-1-yl)-N-(isoxazol-3-yl)benzamide]
COC/C=C/C(=O)N1CCCC[C@H]1c1nc(-c2ccc(C(=O)Nc3ncccn3)cc2)c2c(N)nccn12 [Example 55, (S,E)-4-(8-amino-3-(1-(4-methoxybut-2-enoyl)piperidin-2-yl)imidazo[1,5-a]pyrazin-1-yl)-N-(pyrimidin-2-yl)benzamide]
C=CC(=O)N1CCCC[C@H]1c1nc(-c2ccc(C(=O)Nc3ccccn3)cc2C)c2c(N)nccn12 [Example 68, 4-(3-((S)-1-acryloylpiperidin-2-yl)-8-aminoimidazo[1,5-a]pyrazin-1-yl)-3-methyl-N-(pyridin-2-yl)benzamide]
COC/C=C/C(=O)N1CCCC[C@H]1c1nc(-c2ccc(C(=O)Nc3cccnn3)cc2)c2c(N)nccn12 [Example 72, (S,E)-4-(8-amino-3-(1-(4-methoxybut-2-enoyl)piperidin-2-yl)imidazo[1,5-a]pyrazin-1-yl)-N-(pyridazin-3-yl)benzamide]
Nc1nccn2c([C@@H]3CCCCN3C(=O)c3ccnc(Cl)n3)nc(-c3ccc(C(=O)Nc4cccnn4)cc3)c12 [Example 74, (S)-4-(8-amino-3-(1-(2-chloropyrimidine-4-carbonyl)piperidin-2-yl)imidazo[1,5-a]pyrazin-1-yl)-N-(pyridazin-3-yl)benzamide]
